Test results taken from patent US9925263B2, “Liquid pharmaceutical formulations for injection comprising procaine and uses thereof” (EAGLE BIOLOGICS, INC., priority 2013, dated 2018).

Key:
biosimilar AVASTIN® = assay: Viscosity of aqueous solutions of biosimilar AVASTIN® with viscosity-lowering agents; format: physicochemical; settings: 200 ± 5 mg/mL mAb, pH 7.0, 25° C.; [Salt] 0.25 M of anion; C & P viscometer
branded ERBITUX® = assay: Viscosity of aqueous solutions of branded ERBITUX®; format: physicochemical; settings: 224 ± 4 mg/mL mAb; phosphate buffer or 0.25M BSAA; 25° C., pH 7.0
Description: (§1) (unless otherwise indicated).

REMICADE® = assay: Viscosity of aqueous solutions of […]® with viscosity-lowering agents; format: physicochemical; settings: 0.25M agent, 25° C., pH 7.0
Description: as §1
An extrapolated zero-shear viscosity was determined from a plot of absolute viscosity versus shear rate.
Following reconstitution, the viscosity of each solution was measured using the microfluidic viscometer as described in previous examples. The solutions were then back-loaded into 1 mL BD insulin syringes with 27, 29, or 31 gauge fixed needles. The force required to extrude the concentrated […]® solutions was then measured using an Instron at a rate of displacement equivalent to a fluid flow rate of 3 mL/min. The expelled solution was collected from the syringe and analyzed by size-exclusion chromatography.

HERCEPTIN® = assay: Viscosity of aqueous solutions of HERCEPTIN® with viscosity-lowering agents; format: physicochemical; settings: 0.25M salt, 25° C., pH 7.0
Description: All viscosities of well-mixed aqueous mAb solutions were measured using either a mVROC microfluidic viscometer (RheoSense) or a DV2T cone and plate viscometer (Brookfield; “C & P”) after a 5 minute equilibration at 25° C. (unless otherwise indicated). The mVROC viscometer was equipped with an “A” or “B” chip, each manufactured with a 50 micron channel. Typically, 0.10 mL of protein solution was back-loaded into a gastight microlab instrument syringe (Hamilton; 100 μL), affixed to the chip, and measured at multiple flow rates, approximately 20%, 40%, and 60% of the maximum pressure for each chip. […] An average absolute viscosity and standard deviation was then calculated from at least these three measurements. The C & P viscometer was equipped with a CPE40 or CPE52 spindle (cone angle of 0.8° and 3.0°, respectively) and 0.50 mL samples were measured at multiple shear rates between 2 and 400 s^−1. Specifically, samples were measured for 30 seconds each at 22.58, 24.38, 26.25, 28.13, 30, 31.88, 45, 67.5, 90, 112.5, 135, 157.5, 180, 202.5, 247, 270, 292.5, 315, 337.5, 360, 382, 400 s^−1, starting at a shear rate that gave at least 10% torque, and continuing until instrument torque reached 100%. An extrapolated zero-shear viscosity was then determined from a plot of dynamic viscosity versus shear rate for the samples measured on a DV2T cone and plate viscometer. The extrapolated zero-shear viscosities reported are the average and standard deviation of at least three measurements.
(§2) Viscosities were measured using a RheoSense mVROC microfluidic viscometer equipped with an “A” or “B” chip.
Viscosities reported were measured on a RheoSense mVROC microfluidic viscometer.

TYSABRI® = assay: Viscosity of aqueous solutions of TYSABRI® with viscosity-lowering agents; format: physicochemical; settings: 230 ± 2 mg/mL TYSABRI; 0.25M agent; 25° C., pH 7.0
Description: All viscosities of well-mixed aqueous mAb solutions were measured using either a mVROC microfluidic viscometer (RheoSense) or a DV2T cone and plate viscometer (Brookfield; “C & P”) after a 5 minute equilibration at 25° C. […] The mVROC viscometer was equipped with an “A” or “B” chip, each manufactured with a 50 micron channel. Typically, 0.10 mL of protein solution was back-loaded into a gastight microlab instrument syringe (Hamilton; 100 μL), affixed to the chip, and measured at multiple flow rates, approximately 20%, 40%, and 60% of the maximum pressure for each chip. […] An average absolute viscosity and standard deviation was then calculated from at least these three measurements. The C & P viscometer was equipped with a CPE40 or CPE52 spindle (cone angle of 0.8° and 3.0°, respectively) and 0.50 mL samples were measured at multiple shear rates between 2 and 400 s^−1. Specifically, samples were measured for 30 seconds each at 22.58, 24.38, 26.25, 28.13, 30, 31.88, 45, 67.5, 90, 112.5, 135, 157.5, 180, 202.5, 247, 270, 292.5, 315, 337.5, 360, 382, 400 s^−1, starting at a shear rate that gave at least 10% torque, and continuing until instrument torque reached 100%. An extrapolated zero-shear viscosity was then determined from a plot of dynamic viscosity versus shear rate for the samples measured on a DV2T cone and plate viscometer. The extrapolated zero-shear viscosities reported are the average and standard deviation of at least three measurements.
as §2
Subsequently, the aqueous drug product was purified, buffer exchanged, concentrated, dried, reconstituted, and analyzed as described in the same manner. Viscosities reported were measured on a RheoSense mVROC microfluidic viscometer.

biosimilar ERBITUX® = assay: Viscosity of aqueous solutions of biosimilar ERBITUX® with viscosity-lowering agents; settings: pH 7.0; for Viscosity / Fold Reduction: 0.25M agent; for Fold Reduction: vs phosphate buffer

N=C(N)NCCC[C@H](N)C(=O)O.O=S(=O)(O)c1ccccc1 [BSAA, benzenesulfonic acid arginine]
Viscosity (biosimilar AVASTIN®): 75.3 ± 0.4 cP
Branded ERBITUX ® viscosity (branded ERBITUX®): 44.1 ± 0.5 cP
Viscosity (REMICADE®; 166 ± 4 mg/mL REMICADE): 26.7 ± 1.2 cP
Viscosity (REMICADE®; 222 ± 6 mg/mL REMICADE): 92.3 ± 1.4 cP
Viscosity (HERCEPTIN®; 254 ± 3 mg/mL HERCEPTIN): 75.4 ± 5.0 cP
Viscosity (HERCEPTIN®; 270 ± 6 mg/mL HERCEPTIN): 115 ± 6 cP
Viscosity (TYSABRI®): 34.9 ± 1.3 cP
Viscosity (biosimilar ERBITUX®; 222 ± 5 mg/mL mAb, 25° C.): 53.4 ± 5.5 cP
Biosimilar ERBITUX ® viscosity (biosimilar ERBITUX®; 224 ± 4 mg/mL mAb, phosphate buffer or 0.25M BSAA, 25° C.): 53.4 ± 5.5 cP
Viscosity (biosimilar ERBITUX®; 225 ± 5 mg/mL mAb, 20° C.): 85.2 ± 0.6 cP
Viscosity (biosimilar ERBITUX®; 225 ± 5 mg/mL mAb, 25° C.): 61.3 ± 0.9 cP
Viscosity (biosimilar ERBITUX®; 225 ± 5 mg/mL mAb, 30° C.): 50.5 ± 1.9 cP
Fold Reduction (biosimilar ERBITUX®; 222 ± 5 mg/mL mAb, 25° C.): ~21 fold
Fold Reduction (biosimilar ERBITUX®; 222 ± 5 mg/mL mAb, 25° C., listed as BSA Arginine): 21.2 fold
